From article PMC7932537, “Quantitative profiling of protease specificity” (PLoS Computational Biology, 2021)

Experiments:
[1] = system: MMP-2; assay: Substrate phage display with NGS: relative probability (RP) of P3-P1' tetramer clusters; type: biochemical, human; settings: MMP2;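 also: ratio of tetramer probability after protease selection to that in naive phage library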
[2] = biological target: T1, MMP-2 (Homo sapiens, UniProt P08253); assay: K(obs) of individual phage substrates (set of 1369); type: biochemical; settings: MMP2
T1 sequence (P08253 110-660): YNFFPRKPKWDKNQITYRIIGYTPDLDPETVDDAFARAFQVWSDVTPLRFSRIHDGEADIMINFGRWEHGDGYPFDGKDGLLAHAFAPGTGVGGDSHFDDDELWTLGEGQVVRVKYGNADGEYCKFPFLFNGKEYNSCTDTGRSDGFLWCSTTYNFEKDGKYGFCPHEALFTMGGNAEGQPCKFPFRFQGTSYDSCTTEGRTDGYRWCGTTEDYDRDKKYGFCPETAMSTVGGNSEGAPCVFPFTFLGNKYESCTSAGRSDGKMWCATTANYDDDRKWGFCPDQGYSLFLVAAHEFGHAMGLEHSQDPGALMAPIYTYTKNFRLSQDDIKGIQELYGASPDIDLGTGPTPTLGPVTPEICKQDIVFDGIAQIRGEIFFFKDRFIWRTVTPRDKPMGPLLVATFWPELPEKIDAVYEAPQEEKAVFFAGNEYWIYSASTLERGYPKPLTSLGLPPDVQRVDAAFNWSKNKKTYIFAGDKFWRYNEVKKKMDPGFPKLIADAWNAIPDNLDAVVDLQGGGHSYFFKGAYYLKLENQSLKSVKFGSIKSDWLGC

[3] = biological target: MMP-9 (Homo sapiens, UniProt P14780); assay: as above; type: biochemical; settings: MMP9
Sequence of MMP-9 (P14780 94-707): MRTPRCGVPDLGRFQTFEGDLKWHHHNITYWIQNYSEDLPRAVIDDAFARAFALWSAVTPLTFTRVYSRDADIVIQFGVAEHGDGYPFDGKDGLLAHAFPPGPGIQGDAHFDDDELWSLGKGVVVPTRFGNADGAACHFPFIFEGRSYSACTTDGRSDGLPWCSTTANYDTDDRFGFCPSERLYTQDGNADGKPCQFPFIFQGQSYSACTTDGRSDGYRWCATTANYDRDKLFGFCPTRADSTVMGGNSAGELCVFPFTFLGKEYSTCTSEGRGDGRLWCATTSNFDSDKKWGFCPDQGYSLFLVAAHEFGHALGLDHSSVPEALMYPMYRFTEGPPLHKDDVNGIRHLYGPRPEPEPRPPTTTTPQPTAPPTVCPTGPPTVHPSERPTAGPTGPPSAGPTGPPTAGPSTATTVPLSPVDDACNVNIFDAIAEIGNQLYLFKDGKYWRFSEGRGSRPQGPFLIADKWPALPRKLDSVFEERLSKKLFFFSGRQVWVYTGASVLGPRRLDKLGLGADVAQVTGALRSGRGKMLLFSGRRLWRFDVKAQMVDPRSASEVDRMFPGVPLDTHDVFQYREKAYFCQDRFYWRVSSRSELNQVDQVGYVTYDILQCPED

[4] = RP of the P3-P1' tetramer contained in the substrate (substrate phage display with NGS)
[5] = individual phage substrates, set of 1369 peptides, cleavage position marked by hyphen in sequence
[6] = individual phage substrates, set of 1369 peptides, hyphen in sequence marks cleavage position
[7] = RP of the P3-P1' tetramer contained in the substrate
[8] = individual phage substrate of the set of 1369 peptides, cleavage position marked by '-'
[9] = individual phage substrate of the set of 1369 peptides, dash in the sequence marks the cleavage position

Row | Substance | relative probability (RP) [1, 4] | Kobs [2, 5] [M⁻¹ s⁻¹] | Kobs [3, 6] [M⁻¹ s⁻¹] | relative probability (RP) [1, 7] | Kobs [2, 8] [M⁻¹ s⁻¹] | Kobs [3, 9] [M⁻¹ s⁻¹]
1 | GGSGN-LTMGS | 12.7361 | 0 | 0 | – | – | –
2 | GCPHM-MTASG | 14.968 | 654.784 | 1327.88 | – | – | –
3 | GQPRG-LRTAS | – | – | – | 35.2511 | 12792.1 | 12792.1
4 | AGPQP-LTASG | 30.3595 | 12792.1 | 12792.1 | – | – | –
5 | LLFSQ-LTASG | 9.065 | 8941.32 | 0 | – | – | –
6 | RRVLM-MTASG | 2.736 | 171.876 | 1660.66 | – | – | –
7 | GMAWG-LRTAS | 17.7408 | 8941.32 | 7815.03 | – | – | –
8 | SKMAH-LTASG | – | – | – | 29.5006 | 2409.72 | 0
9 | TIPFY-MTASG | 8.184 | 3964.21 | 9740.44 | – | – | –
10 | YDVYN-LTASG | – | – | – | 19.1818 | 3253.29 | 7815.03
11 | PRVWL-LTASG | 0.5351 | 3165.09 | 2687.73 | – | – | –
12 | NVPVW-MTASG | – | – | – | 25.8126 | 5461.43 | 5461.43
13 | SGAFN-LYSTA | – | – | – | 16.2959 | 12792.1 | 12792.1
14 | DRQLS-LTASG | – | – | – | 0.4979 | 84.609 | 0
15 | TTLRW-WTASG | 6.313 | 1816.46 | 690.17 | – | – | –
16 | GMPRY-MTASG | – | – | – | 28.0367 | 4335.13 | 12792.1
17 | ATIAH-LTASG | 32.9345 | 12792.1 | 1465.65 | – | – | –
18 | MSLGY-LTASG | – | – | – | 24.8925 | 12792.1 | 0
19 | VRVLH-LTASG | 19.5348 | 8321.48 | 8321.48 | – | – | –
20 | GWPRE-LKTAS | – | – | – | 31.9513 | 12792.1 | 12792.1
21 | SGFAH-LTSTA | 19.6504 | 4763.33 | 171.876 | – | – | –
22 | VPWGN-LTASG | 14.7295 | 5461.43 | 0 | – | – | –
23 | GRIYE-LWTAS | 0.2382 | 585.336 | 1373.05 | – | – | –
24 | GNSWG-LRTAS | – | – | – | 0.1389 | 292.668 | 690.17

Row | Substance | relative probability (RP) [1, 4] | Kobs [2, 5] [M⁻¹ s⁻¹] | Kobs [3, 6] [M⁻¹ s⁻¹] | relative probability (RP) [1, 7] | Kobs [2, 8] [M⁻¹ s⁻¹] | Kobs [3, 9] [M⁻¹ s⁻¹]
25 | HAHAS-LTASG | 26.2573 | 12792.1 | 142.481 | – | – | –
26 | STVFH-MTASG | 5.168 | 0 | 1763.55 | – | – | –
27 | GFFLH-LTTAS | 0.8093 | 0 | 0 | – | – | –
28 | SQPIH-MTASG | – | – | – | 18.8886 | 2097.28 | 6688.74
29 | SGLWY-LSATA | 0.6796 | 1196.62 | 484.315 | – | – | –
30 | SGVNH-LMTTA | – | – | – | 12.8499 | 201.585 | 231.616
31 | SGPYP-LWKTA | – | – | – | 30.8058 | 2218.08 | 3079.62
32 | GSGFS-LRTWT | 0.09752 | 0 | 0 | – | – | –
33 | SMGSH-LTASG | 4.2785 | 1154.21 | 0 | – | – | –
34 | GVLQK-LVTAS | 13.1993 | 654.784 | 0 | – | – | –
35 | ARSYN-LTASG | – | – | – | 6.093 | 3165.09 | 3964.21
36 | ELSLA-LTASG | – | – | – | 6.019 | 1925.41 | 1112.44
37 | TVPQM-ITASG | – | – | – | 16.6558 | 5269.78 | 7815.03
38 | SGASH-MTLTA | 12.3873 | 0 | 0 | – | – | –
39 | GEVFS-LTASG | – | – | – | 9.631 | 585.336 | 951.362
40 | TGVSW-LTASG | 30.6564 | 12792.1 | 10866.7 | – | – | –
41 | WVMES-LTASG | – | – | – | 8.775 | 1660.66 | 386.839
42 | RLANA-LTASG | – | – | – | 20.3526 | 3741.87 | 619.843
43 | VVLMG-LTASG | – | – | – | 28.5499 | 1925.41 | 323.705
44 | SGMGH-LLHTA | – | – | – | 26.7019 | 654.784 | 0
45 | GISFA-LTTAS | 0.5631 | 0 | 27.918 | – | – | –
46 | GSGAA-LTMPT | 15.7207 | 836.403 | 84.609 | – | – | –
47 | QKVLN-MTASG | 19.025 | 2476.66 | 5269.78 | – | – | –
48 | GEVRG-LRTAS | 29.092 | 12792.1 | 7386.83 | – | – | –

Row | Substance | relative probability (RP) [1, 4] | Kobs [2, 5] [M⁻¹ s⁻¹] | Kobs [3, 6] [M⁻¹ s⁻¹] | relative probability (RP) [1, 7] | Kobs [2, 8] [M⁻¹ s⁻¹] | Kobs [3, 9] [M⁻¹ s⁻¹]
49 | VDIRM-LTASG | – | – | – | 12.7446 | 5889.62 | 3079.62
50 | KSPLG-LTASG | 35.3536 | 4470.66 | 10866.7 | – | – | –
51 | SGYYG-LRATA | 0.142 | 874.197 | 12792.1 | – | – | –
52 | VYWGN-MTASG | 3.723 | 4082.43 | 27.918 | – | – | –
53 | GVYAH-LLTAS | – | – | – | 18.7061 | 323.705 | 171.876
54 | IGALA-LTASG | – | – | – | 22.1184 | 12792.1 | 12792.1
55 | SGPLG-ITLTA | 33.936 | 12792.1 | 12792.1 | – | – | –
56 | SGVRH-LINTA | – | – | – | 25.4239 | 1763.55 | 8321.48
57 | SGVRA-IIATA | – | – | – | 26.2338 | 12792.1 | 12792.1
58 | WMPLG-MTASG | – | – | – | 34.1118 | 5461.43 | 12792.1
59 | VRAHS-LTASG | 21.0212 | 4205.91 | 4922.1 | – | – | –
60 | YYPRA-LTASG | – | – | – | 35.2345 | 12792.1 | 12792.1
61 | AHFAH-LTASG | 19.6504 | 2687.73 | 0 | – | – | –
62 | GSGQH-LRKST | 1.164 | 171.876 | 0 | – | – | –
63 | DLPAG-LTASG | – | – | – | 36.0156 | 12792.1 | 8321.48
64 | SGVMG-IRITA | – | – | – | 12.4242 | 484.315 | 1418.96
65 | VNARM-LTASG | 2.9901 | 1196.62 | 2218.08 | – | – | –
66 | HWPVG-LTASG | 35.2016 | 2837.92 | 3079.62 | – | – | –
67 | PVFQS-LTASG | 13.5551 | 4922.1 | 142.481 | – | – | –
68 | GSGQH-LRVHT | 1.164 | 113.394 | 0 | – | – | –
69 | GGYAN-LTTAS | 27.7486 | 5269.78 | 0 | – | – | –
70 | YCSLP-LTASG | 8.6373 | 451.441 | 113.394 | – | – | –
